{"source": "paper PMC10777851", "about": "“SMT-738: a novel small-molecule inhibitor of bacterial lipoprotein transport targeting Enterobacteriaceae” (Antimicrobial Agents and Chemotherapy, 2023)", "key": {"K. pneumoniae": {"system": "K. pneumoniae", "assay": "MIC by broth microdilution (CLSI) against K. pneumoniae", "assay_type": "cell-based, Klebsiella pneumoniae", "procedure": "(§1) MIC tests were performed by broth microdilution in-line with CLSI susceptibility testing standards ([20], [21]) either in-house or at IHMA (Europe and USA) or JMI Laboratories using cation-adjusted Mueller Hinton Broth."}, "[1]": {"system": "members of the Enterobacterales order", "assay": "MIC, panel of 100 bacterial species: Enterobacterales", "assay_type": "cell-based", "conditions": "apart from the named exceptions", "procedure": "as §1"}, "Edwardsiella tarda": {"system": "Edwardsiella tarda", "assay": "MIC, panel of 100 bacterial species", "assay_type": "cell-based", "procedure": "as §1"}, "Haemophilus influenzae": {"system": "Haemophilus influenzae", "assay": "MIC, panel of 100 bacterial species", "assay_type": "cell-based", "procedure": "as §1"}, "[2]": {"system": "Haemophilus parainfluenzae", "assay": "MIC, panel of 100 bacterial species", "assay_type": "cell-based", "procedure": "as §1"}, "Hafnia alvei": {"system": "Hafnia alvei", "assay": "MIC, panel of 100 bacterial species", "assay_type": "cell-based", "procedure": "as §1"}, "Morganella morganii": {"system": "Morganella morganii", "assay": "MIC, panel of 100 bacterial species", "assay_type": "cell-based", "procedure": "as §1"}, "Proteus sp.": {"system": "Proteus sp.", "assay": "MIC, panel of 100 bacterial species", "assay_type": "cell-based", "procedure": "as §1"}, "[3]": {"system": "anaerobic gut commensals such as Actinomyces sp., Bacteroides sp., Clostridioides sp., Bifidobacterium sp., Peptostreptococcus sp., and Veillonella sp.", "assay": "MIC, panel of 100 bacterial species: anaerobic gut commensals", "assay_type": "cell-based", "procedure": "as §1"}, "[4]": {"system": "KPM (K. pneumoniae NCTC 13438)", "assay": "Frequency of resistance determination, K. pneumoniae", "assay_type": "cell-based, Klebsiella pneumoniae", "conditions": "for LoD Range: experiments with no colonies observed; for FoR Range: experiments with colonies observed", "procedure": "The FoR of bacterial strains to test compounds was determined by plating aliquots of overnight cultures onto MH-agar plates containing dilutions of the test compound at various multiples of reference MIC as previously determined. Total viable counts of the overnight cultures were determined by spotting 10–20 µL of decimal dilutions in 1× phosphate-buffered saline (PBS) onto non-selective agar. Assay plates were incubated for up to 48 h with colonies being enumerated every 24 h. FoR was determined by dividing the number of colonies observed by the total number of viable cells plated. Representative colonies were then picked and streaked onto selective agar to confirm resistance and obtain resistant isolates. Isolates growing on selective agar were then used to initiate overnight cultures, bacteria pelleted by centrifugation, supernatant removed, and pellets stored at −80°C for subsequent DNA extraction and whole-genome sequencing. Genomic DNA was extracted using the DNeasy Blood and Tissue Kit (Qiagen), quantified using the Quant-iT TM PicoGreen TM dsDNA Assay Kit (Thermo Fisher Scientific), and normalized to 0.2 ng/µL in nuclease-free water. Library preparation and barcode addition were with the Nextera XT DNA Library Prep Kit (Illumina). KAPA Pure beads (Roche) were used for DNA purification. Samples were pooled to achieve 100× coverage of each sample and run on an Illumina Nextseq 500/550 Mid Output Kit v2.5 (150 cycles) (Illumina)."}, "HEK293": {"system": "HEK293", "assay": "Cytotoxicity (CellTiter-Glo), HEK293", "assay_type": "cell-based", "conditions": "HEK293, 24 h", "procedure": "HepG2 (ATCC, HB-8065) and HEK293 (ATCC, CRL-1573) were sourced from ATCC. For the cytotoxicity assay, cells were seeded onto 96-well plates, which were then incubated for 24 h in a 5% CO2 incubator at 37°C. On the day of the assay, 10-point, twofold serial dilutions of test compound were prepared in assay media (MEM + 10% FBS) in separate 96-well plates. Assay plates were removed from the incubator, and the media from all of the wells were removed, taking care not to disturb the cell layer. Compound-containing assay media or control media were added to the relevant wells. Assay plates were returned to the 5% CO2 incubator at 37°C for 24 h. CellTiter-Glo reagent (Promega, G7570) was used to determine the viability of the cells."}, "[5]": {"system": "Renal proximal tubule epithelial cells", "assay": "Nephrotoxicity assay (cell health markers)", "assay_type": "cell-based", "conditions": "top concentration of 500 µM (= 196.85 µg/mL)", "procedure": "The standard nephrotoxicity assay was performed by Cyprotex, UK. Renal proximal tubule epithelial cells were exposed to a range of concentrations of compound, loaded with relevant dye/antibody for each cell health marker and scanned using a fluorescent cellular imager (ArrayScan, Thermo Scientific Cellomics). Cell health parameters that were analyzed: cell count, nuclear size, DNA structure, mitochondrial mass, mitochondrial membrane potential, phospholipidosis, glutathione content, and cellular ATP."}, "[6]": {"assay": "Pharmacokinetics after IV bolus in mice", "assay_type": "in vivo, male CD-1 mice", "conditions": "20-mg/kg bolus IV", "procedure": "Male CD-1 mice (from Charles River, Margate UK) were administered 20 mg/kg of SMT-738 via IV bolus route. At selected timepoints, blood, kidney tissue, lung tissue, and urine were collected and progressed for further analysis. The PK parameters included initial concentration (C 0) via extrapolation, clearance (CL), volume of distribution (V ss), and AUC0-t in plasma were determined using non-compartmental analysis. Tissue partitioning values were determined with ratio of AUC0-t,kidney/AUC0-t,plasma for kidney (K p,kidney) and ratio of AUC0-t,lung/AUC0-t,plasma for lung (K p,lung). The mean recovery (%) of SMT-738 unchanged in urine was determined by amount in urine compared to the intravenously administered dose. The study was conducted by Evotec Ltd (UK)."}, "Protein binding, dog": {"assay": "Protein binding, dog", "assay_type": "in vitro ADME"}, "[7]": {"system": "E. coli BAA 2469 (NDM-1 positive)", "assay": "Murine bloodstream infection model", "assay_type": "in vivo, male CD-1 mice", "conditions": "60-min IV infusion, readout 9 h, below the limit of detection", "procedure": "Male JVC-cannulated CD-1 mice were infected intraperitoneally with E. coli BAA2469. At t = 1 h and t = 6 h, SMT-738 was intravenously infused over 60 min (BID). The mice from the pre-treatment group were euthanized at 1 h post-infection. All remaining mice were euthanized at 9 h post-infection, and blood samples were collected via cardiac puncture. Blood samples were serially diluted in PBS and plated onto cystine-lactose-electrolyte-deficient (CLED) agar. The viable bacterial burden for each sample was determined following overnight incubation at 37°C. A Kruskal-Wallis statistical test was performed."}, "[8]": {"conditions": "100 MDR clinical isolates incl. ESBL and CRE"}}, "note": "Values joined by “and” are separate entries in the source; they are usually repeats but may differ in a detail not shown here. Equal values may be shown once."}
{"smiles": "Cc1cnccc1-c1[nH]c(N)nc1-c1ccc2c(c1)N(C(=O)C(C)(C)N)CCO2", "note": "[SMT-738]", "values": [{"measurement": "MIC Range K. pneumoniae (NDM)", "setting": "K. pneumoniae; 15 clinical MDR NDM isolates (NDM-1, NDM-4, NDM-5) from India (2018)", "result": "0.5 to 1", "unit": "mg/L"}, {"measurement": "MIC50 K. pneumoniae", "setting": "K. pneumoniae; [8]", "result": 1, "unit": "mg/L"}, {"measurement": "MIC90 K. pneumoniae", "setting": "K. pneumoniae; [8]", "result": 2, "unit": "mg/L"}, {"measurement": "MIC range K. pneumoniae", "setting": "K. pneumoniae; [8]", "result": "0.25 to 8", "unit": "mg/L"}, {"measurement": "MIC", "setting": "K. pneumoniae; K. pneumoniae ATCC 43816", "result": 0.5, "unit": "µg/mL"}, {"measurement": "MIC (20% HS)", "setting": "K. pneumoniae; K. pneumoniae IHMA 1769429, 20% human serum", "result": 1, "unit": "mg/L"}, {"measurement": "MIC (50% HS)", "setting": "K. pneumoniae; K. pneumoniae IHMA 1769429, 50% human serum", "result": 2, "unit": "mg/L"}, {"measurement": "MIC (no HS)", "setting": "K. pneumoniae; K. pneumoniae IHMA 1769429, no human serum", "result": 2, "unit": "mg/L"}, {"measurement": "MIC (20% HS)", "setting": "K. pneumoniae; K. pneumoniae IHMA 1770556, 20% human serum", "result": 0.5, "unit": "mg/L"}, {"measurement": "MIC (50% HS)", "setting": "K. pneumoniae; K. pneumoniae IHMA 1770556, 50% human serum", "result": 1, "unit": "mg/L"}, {"measurement": "MIC (no HS)", "setting": "K. pneumoniae; K. pneumoniae IHMA 1770556, no human serum", "result": 1, "unit": "mg/L"}, {"measurement": "MIC", "setting": "K. pneumoniae; K. pneumoniae NCTC 13438 (MDR, Class A KPC)", "result": "1.56 µM and 0.61 µg/mL"}, {"measurement": "MICref", "setting": "K. pneumoniae; Kpm13438, reference MIC of the FoR experiments", "result": "3.13 µM and 1.22 µg/mL"}, {"measurement": "MIC", "setting": "[1]", "result": "0.12 to 2", "unit": "mg/L"}, {"measurement": "MIC", "setting": "Edwardsiella tarda", "result": 32, "unit": "mg/L"}, {"measurement": "MIC", "setting": "Haemophilus influenzae", "result": 1, "unit": "mg/L"}, {"measurement": "MIC", "setting": "[2]", "result": 1, "unit": "mg/L"}, {"measurement": "MIC", "setting": "Hafnia alvei", "result": 32, "unit": "mg/L"}, {"measurement": "MIC", "setting": "Morganella morganii", "result": "> 64", "unit": "mg/L"}, {"measurement": "MIC", "setting": "Proteus sp.", "result": "8 to 32", "unit": "mg/L"}, {"measurement": "MIC", "setting": "[3]", "result": "> 128", "unit": "mg/L"}, {"measurement": "LoD Range", "setting": "[4]; 4× MICref, 24 h", "result": "< 2.26E-09"}, {"measurement": "FoR Range", "setting": "[4]; 4× MICref, 48 h", "result": "1.50E-09"}, {"measurement": "LoD Range", "setting": "[4]; 4× MICref, 48 h", "result": "< 2.26E-09"}, {"measurement": "LoD Range", "setting": "[4]; 8× MICref, 24 h", "result": "< 2.26E-09"}, {"measurement": "FoR Range", "setting": "[4]; 8× MICref, 48 h", "result": "3.75E-10"}, {"measurement": "LoD Range", "setting": "[4]; 8× MICref, 48 h", "result": "< 2.26E-09"}, {"measurement": "Frequency of resistance (FoR)", "setting": "[4]; single-step selection at 4× and 8× the MIC, after 24 and 48 h", "result": "≤ 10^−9"}, {"measurement": "IC50", "setting": "HEK293", "result": "> 200", "unit": "µM"}, {"measurement": "cytotoxicity IC50", "setting": "HEK293", "result": "> 78.74", "unit": "mg/L"}, {"measurement": "nephrotoxicity", "setting": "[5]", "result": "No toxicity was observed"}, {"measurement": "Kp,kidney", "setting": "[6]; AUC0-t,kidney/AUC0-t,plasma", "result": 44.8}, {"measurement": "Kp,lung", "setting": "[6]; AUC0-t,lung/AUC0-t,plasma", "result": 8.1}, {"measurement": "eliminated unchanged into the urine", "setting": "[6]; over a 24-h period", "result": "approximately 29.5%"}, {"measurement": "CL", "setting": "[6]; plasma", "result": 3.54, "unit": "L/h/kg"}, {"measurement": "Vss", "setting": "[6]; plasma", "result": 4.3, "unit": "L/kg"}, {"measurement": "C0", "setting": "[6]; plasma, via extrapolation", "result": "18,386 ng/mL"}, {"measurement": "protein binding", "setting": "Protein binding, dog", "result": 50.6, "unit": "%"}, {"measurement": "efficacy in the blood", "setting": "[7]; 10 mg/kg BID", "result": "almost as efficacious as the 20 mg/kg BID dose"}, {"measurement": "reduction of bacterial burden compared to pre-treatment", "setting": "[7]; blood, 20 mg/kg BID", "result": 4, "unit": "log10"}]}
